Assay results taken from PMC6940354, “Comparative Assessment of the New PDE7 Inhibitor – GRMS-55 and Lisofylline in Animal Models of Immune-Related Disorders: A PK/PD Modeling Approach” (Pharmaceutical Research, 2020).
Converted amounts (≈) assume the structure as drawn.

Legend:
[1] = system: TNF-α release from LPS-stimulated whole rat blood; assay: Inhibition of LPS-induced TNF-α release in whole rat blood; assay type: cell-based; conditions: LPS 10 mg L^−1, 6 h incubation, compared to LPS-treated control
Procedure: Stimulation of whole rat blood by LPS was performed on 96-well plates. […] Contents of each well (200 μL) consisted of heparinized rat blood containing 10 U heparin mL^−1 diluted with RPMI-1640 medium at a ratio of 1:1 (v/v). All compounds were dissolved in DMSO and added to blood (the final DMSO concentration in blood was 0.5%) 15 min prior to the addition of LPS dissolved in RPMI-1640 medium to achieve the LPS concentration of 10 mg L^−1. Both, LPS and DMSO were also added to control wells at the same concentrations. Additional control samples (for testing baseline TNF-α levels in blood) consisted of DMSO (0.5%) without LPS. The incubation was performed at 37°C in a humidified atmosphere of 5% CO2 in an MCO-5 AC-PE incubator (PHCbi, Japan). After 6 h of incubation, the plates were centrifuged for 10 min using PlateFuge MicroCentrifuge (Benchmark Scientific, USA). The individual plasma samples were harvested and stored at −80°C until analysis.
(§1) TNF-α levels in LPS-stimulated rat blood in vitro and in rat plasma samples from the in vivo studies were analyzed by the Rat TNF-α Quantikine ELISA Immunoassay Kit (R&D Systems, USA) according to the manufacturer’s instructions. The assay was linear at the range of 12.5–800 pg mL^−1. Levels of TNF-α in mice serum were measured by ELISA Kits for Tumor Necrosis Factor Alpha (Cloud-Clone Corp., USA). This assay was linear at the range of 15.6–1000 pg mL^−1. Absorbance was measured at 450 nm using a POLARstar Omega multi-mode microplate reader (BMG LABTECH, Germany).

[2] = system: TNF-α plasma levels in male Wistar rats with LPS-induced endotoxemia; assay: LPS-induced endotoxemia in rats, PK/PD model of plasma TNF-α; assay type: in vivo, rat
Procedure: Male Wistar rats were implanted with catheters (SAI Infusion Technologies, USA) into the jugular vein and after a two-day recovery period they were administered with LPS dissolved in saline at a dose of 1 mg kg ^−1 into the tail vein simultaneously with one of the investigated compounds. […] The doses of the compounds were selected based on the literature data or results of our previous experiments. Each control group received LPS at the same IV dose and an appropriate volume of corresponding vehicle. […] The plasma samples were collected and stored at −80°C until analysis.
as §1
PK/PD and PK/PD/DIS progression models were developed considering the mechanism of action of the investigated compounds, the mechanisms of disease progression in the case of CIA, and the subsequent stages leading to TNF-α release in the case of LPS-induced endotoxemia. Various numbers of transit compartments were tested during development of the models, and the final models were chosen based on the goodness-of-fit criteria, such as AIC, SBC, a visual inspection of the fitting, and parameter precision. Estimated values of pharmacokinetic parameters were fixed during PK/PD and PK/PD/DIS progression model fitting procedures. […] PK/PD and PK/PD/DIS progression modeling were performed in ADAPT 5 software using the weighted least squares algorithm.
Therefore, as a result of PK/PD analysis, three sets of pharmacodynamic parameters were obtained based on the data from the three individual experiments.
The applied model is a modified indirect response model ([19]) with implemented transit compartments (T1-T4) that describe the delay of the observed pharmacodynamic response. In this scheme τ is the mean transit time, kin is the time limited (from 0 to tlag) zero-order rate constant of production of a TNF-α precursor (e.g., TNF-α mRNA). Different numbers of transit compartments were tested during the model development, but the best fit was observed using four transit compartments.
All Imax values were fixed to 1.

[3] = system: LPS-stimulated murine macrophages (RAW263.7 cells); design: method as in PMID 14998551; conditions: cited from earlier work
[4] = system: TNF-α release in mice model of endotoxemia; design: method as in PMID 20389149; conditions: mice model of endotoxemia ref [19]; cited from earlier work
[5] = system: cAMP degradation; design: method as in PMID 28730281; conditions: rats, cAMP as a marker of pharmacological response ref [9]; cited from earlier work
[6] = system: PDE4; design: method as in PMID 14998551; conditions: ref [31]; read-out: IC50PDE4; cited from earlier work
[7] = system: LPS-stimulated human PBMC; design: method as in PMID 14998551; conditions: LPS-stimulated human PBMC ref [31]; read-out: IC50, TNF-α production; cited from earlier work

CC(=O)CCCCn1c(=O)c2c(ncn2C)n(C)c1=O [PTX, Pentoxifylline]
Reduction of TNF-α levels in LPS-stimulated whole rat blood (result in words) [1]: significantly and with similar potency reduced | IC50 ([2]; Rattus norvegicus, iv, read-out: IC50, concentration of compound producing 50% of Imax (inhibition of TNF-α release in vivo), Final estimate (CV%), plasma concentration, PK/PD model, Imax fixed to 1, male Wistar rats, LPS 1 mg kg^−1 IV, IV GRMS-55 20, rolipram 5, (±)-LSF and PTX 40 and 80 mg kg^−1): 14 µg/mL (≈ 50.3 µM) | activity in inhibiting TNF-α release in vivo, times lower than that of rolipram ([2]; ratio of IC50 values to rolipram): ~ 39 times | TNF-α production (result in words) ([3]; RAW263.7 cells, concentrations of 500 and 1000 μM ref [31]): significantly inhibited TNF-α production | IC50 value for the inhibition of TNF-α release [4]: 0.47 µg/mL | IC50 value for the inhibition of cAMP degradation [5]: 4.48 µg/mL

C[C@@H](O)CCCCn1c(=O)c2c(ncn2C)n(C)c1=O [R-(−)-LSF]
IC50 value for the inhibition of TNF-α release [4]: 1.61 µg/mL

COc1ccc(C(=O)Nc2c(Cl)cncc2Cl)cc1OC1CCCC1 [RP73401]
IC50 [6]: 1 nM | IC50 ([3]; LPS-stimulated murine macrophage cell line ref [31], read-out: IC50, TNF-α production): 2.7 nM | IC50 [7]: 3.3 nM
